Paper PMC10944868, “Synthesis, biological and computational evaluation of novel cyanomethyl vinyl ether derivatives” (Frontiers in Pharmacology, 2024)

Assays:
Format in all cases: cell-based
[1] = tested on: SKOV3 (human ovarian carcinoma); assay: Cytotoxicity assay (CCK8), SKOV3; conditions: SK-OV-3, SKOV3 cells, 48 h
Procedure: (§1) Cells were cultured according to the supplier´s instructions (ATCC technologies, A-549 (CCL-185), BT-20 (HTB-19), SKOV3 (HTB-77), HCT116 (CCL-247), MRC5 (CCL-171). Cells were seeded in 96-well plates at a density of 2–2.5 × 10^3 cells per well and incubated overnight in 0.1 mL of media supplied with 10% Fetal Bovine Serum (Lonza) in 5% CO2 incubator at 37°C. On day 2, drugs were added and samples were incubated for 48 h. After treatment, 10 µL of cell counting kit-8 was added into each well for additional 2 h incubation at 37°C. The absorbance of each well was determined by an Automatic Elisa Reader System at 450 nm wavelength.

[2] = tested on: BT20 (human breast carcinoma); assay: Cytotoxicity assay (CCK8), BT20; conditions: BT20 cells
Procedure: as §1

[3] = tested on: A549 (carcinomic human alveolar basal epithelial cells); assay: Cytotoxicity assay (CCK8), A549; conditions: 48 h
Procedure: as §1

[4] = tested on: HCT-116 (human colorectal carcinoma); assay: Cytotoxicity assay (CCK8), HCT116; conditions: HCT116 cells, 48 h
Procedure: as §1

[5] = tested on: MRC-5 (non-malignant lung fibroblasts); assay: Cytotoxicity assay (CCK8), MRC5; conditions: Homo sapiens, MRC5 non-cancerous cells, 48 h
Procedure: as §1

Row | SMILES | IC50 [1] | IC50 ([2]; Homo sapiens, BT-20, 48 h) | IC50 [3] | IC50 [4] | IC50 [5] | IC50 ([2]; 48 h)
1 | COC(=O)/C=C/OC(C#N)c1ccccc1 (stereo not shown) [Compound 5E] | 3.84 ± 1.56 µM | 8.31 ± 1.26 µM | 18.9 ± 1.2 µM | > 50 µM | > 50 µM | –
2 | COC(=O)/C=C/OC(C#N)c1cc2ccccc2c2ccccc12 (stereo not shown) [Compound 12E] | 7.35 ± 1.42 µM | 9.89 ± 0.25 µM | 9.89 ± 0.25 µM | 16.1 ± 1.2 µM | 14.4 ± 0.86 µM | 7 ± 1.96 µM
3 | COC(=O)/C=C/OC(C#N)c1cccs1 (stereo not shown) [Compound 10E] | > 50 µM | – | > 50 µM | > 50 µM | > 50 µM | –
4 | CCC(C#N)O/C=C\C(=O)OC (stereo not shown) [Compound 1Z] | > 50 µM | > 50 µM | > 50 µM | > 50 µM | > 50 µM | –
5 | COC(=O)/C=C\OC(C#N)c1ccccc1 (stereo not shown) [Compound 5Z] | 29.8 ± 2.09 µM | 19.9 ± 3.42 µM | > 50 µM | > 50 µM | > 50 µM | –
6 | COC(=O)/C=C\OC(C#N)c1ccc(F)cc1 (stereo not shown) [Compound 8Z] | > 50 µM | – | > 50 µM | > 50 µM | > 50 µM | –
7 | CC(C)OC(=O)/C=C\OC(C#N)c1ccccc1 (stereo not shown) [Compound 4Z, Isoropyl (Z)-3-(cyano(phenyl)methoxy)acrylate] | > 50 µM | – | > 50 µM | > 50 µM | > 50 µM | –
8 | COC(=O)/C=C\OC(C#N)c1ccc(OC)cc1 (stereo not shown) [Compound 6Z] | 31.3 ± 4.42 µM | 12.6 ± 1.76 µM | > 50 µM | > 50 µM | > 50 µM | –
9 | COC(=O)/C=C\OC(C#N)c1ccc(C(F)(F)F)cc1 (stereo not shown) [Compound 7Z] | > 50 µM | > 50 µM | > 50 µM | > 50 µM | > 50 µM | –
10 | CCCOC(=O)/C=C\OC(C#N)c1ccccc1 (stereo not shown) [Compound 3Z, Propyl (Z)-3-(cyano(phenyl)methoxy)acrylate] | > 50 µM | – | > 50 µM | > 50 µM | > 50 µM | –
11 | COC(=O)/C=C/OC(C#N)c1ccc(C)cc1 (stereo not shown) [Compound 9E] | 8.08 ± 2.08 µM | 4.98 ± 2.77 µM | 21.4 ± 0.83 µM | > 50 µM | > 50 µM | –
12 | COC(=O)/C=C\OC(C#N)c1cccs1 (stereo not shown) [Compound 10Z] | > 50 µM | – | > 50 µM | > 50 µM | > 50 µM | –
13 | CC(C)OC(=O)/C=C/OC(C#N)c1ccccc1 (stereo not shown) [Compound 4E, Isoropyl (E)-3-(cyano(phenyl)methoxy)acrylate] | > 50 µM | – | > 50 µM | > 50 µM | > 50 µM | –
14 | COC(=O)/C=C/OC(C#N)c1ccc(F)cc1 (stereo not shown) [Compound 8E] | > 50 µM | – | > 50 µM | > 50 µM | > 50 µM | –
15 | COC(=O)/C=C\OC(C#N)c1ccc(C)cc1 (stereo not shown) [Compound 9Z] | > 50 µM | 20.2 ± 3.78 µM | > 50 µM | > 50 µM | > 50 µM | –
16 | COC(=O)/C=C/OC(C#N)c1ccc(C(F)(F)F)cc1 (stereo not shown) [Compound 7E] | 2.62 ± 0.53 µM | 10 ± 2.17 µM | 29.3 ± 1.1 µM | > 50 µM | > 50 µM | –
17 | COC(=O)/C=C/OC(C#N)c1ccc(OC)cc1 (stereo not shown) [Compound 6E] | 12.4 ± 1.18 µM | 27.8 ± 5.31 µM | > 50 µM | > 50 µM | > 50 µM | –
18 | CCCCCCC(C#N)O/C=C\C(=O)OC (stereo not shown) [Compound 2Z] | > 50 µM | 17.3 ± 3.44 µM | > 50 µM | > 50 µM | > 50 µM | –
19 | CCC(C#N)O/C=C/C(=O)OC (stereo not shown) [Compound 1E] | 2.92 ± 0.28 µM | 7.07 ± 1.28 µM | > 50 µM | > 50 µM | > 50 µM | –
20 | CCCOC(=O)/C=C/OC(C#N)c1ccccc1 (stereo not shown) [Compound 3E, Propyl (E)-3-(cyano(phenyl)methoxy)acrylate] | > 50 µM | – | > 50 µM | > 50 µM | > 50 µM | –
21 | CCCCCCC(C#N)O/C=C/C(=O)OC (stereo not shown) [Compound 2E] | 41.6 ± 2.46 µM | 15.8 ± 2.9 µM | > 50 µM | > 50 µM | > 50 µM | –
22 | COC(=O)/C=C\OC(C#N)c1cc2ccccc2c2ccccc12 (stereo not shown) [Compound 12Z] | 11.9 ± 1.88 µM | 11.9 ± 1.1 µM | > 50 µM | > 50 µM | > 50 µM | –
